ChEMBL document CHEMBL1201862, “PubChem BioAssay data set” (2004)
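Five concentrations, 48 hours, 96-well plates. Abbreviation: GI50, concentration required for 50% inhibition of growth.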 Calls of active or inactive are those of the source. Cut-off read from the data, not from the text of the source: active = GI50 up to about 1.1 µM and inactive = higher.

Columns and labels:
Test in all cases: NCI anticancer screen, dose series, 48 h
RXF 393 = system: RXF 393
NCI-H460 = system: NCI-H460
K562 = system: K562
HT-29 = system: HT-29
HCC 2998 = system: HCC 2998
DMS-114 = system: DMS-114
SK-MEL-28 = system: SK-MEL-28
HOP-92 = system: HOP-92
OVCAR-5 = system: OVCAR-5
SF-268 = system: SF-268
DMS-273 = system: DMS-273
786-0 = system: 786-0
NCI-H23 = system: NCI-H23
LOX IMVI = system: LOX IMVI
KM-20L2 = system: KM-20L2

Measured: GI50

CCCCCCCCCCCC(=O)OCCOCCOCCOCCOCCOCc1ccccc1
inactive: RXF 393 > 100 µM | NCI-H460 > 100 µM | K562 > 100 µM | HT-29 > 100 µM | HCC 2998 > 100 µM | DMS-114 > 100 µM | SK-MEL-28 > 100 µM | HOP-92 > 100 µM | OVCAR-5 > 100 µM | SF-268 > 100 µM | DMS-273 > 100 µM | 786-0 > 100 µM | NCI-H23 > 100 µM | LOX IMVI > 100 µM | KM-20L2 > 100 µM

CCOC(=O)COc1ccc(OCC(=O)OCC)c2c1C(=O)CCCC2=O
inactive: RXF 393 > 100 µM | NCI-H460 > 100 µM | K562 > 100 µM | HT-29 > 100 µM | HCC 2998 > 100 µM | DMS-114 > 100 µM | SK-MEL-28 > 100 µM | HOP-92 > 100 µM | OVCAR-5 > 100 µM | SF-268 > 100 µM | DMS-273 > 100 µM | 786-0 > 100 µM | NCI-H23 > 100 µM | LOX IMVI > 100 µM | KM-20L2 > 100 µM

COC(=O)C(Br)C1CCc2ccccc21 (configuration not stated)
inactive: NCI-H460 > 100 µM | K562 52.7 µM | HT-29 > 100 µM | HCC 2998 > 100 µM | DMS-114 > 100 µM | SK-MEL-28 > 100 µM | HOP-92 > 100 µM | OVCAR-5 > 100 µM | SF-268 > 100 µM | DMS-273 > 100 µM | 786-0 > 100 µM | NCI-H23 > 100 µM | LOX IMVI > 100 µM | KM-20L2 > 100 µM

CC(=O)C1=NN(c2ccccc2)C2(S1)SC(c1ccccc1)(c1ccccc1)c1ccccc12 (configuration not stated)
inactive: RXF 393 13.2 µM | NCI-H460 32.3 µM | K562 32.4 µM | HT-29 95.3 µM | HCC 2998 > 100 µM | DMS-114 32.5 µM | SK-MEL-28 > 100 µM | HOP-92 10.4 µM | SF-268 40.1 µM | DMS-273 17.6 µM | 786-0 34.5 µM | NCI-H23 27.2 µM | LOX IMVI 61.5 µM | KM-20L2 > 100 µM

COc1c(C)n(CCO)ccc1=O
inactive: RXF 393 > 100 µM | NCI-H460 > 100 µM | K562 > 100 µM | HT-29 > 100 µM | DMS-114 > 100 µM | SK-MEL-28 > 100 µM | HOP-92 > 100 µM | OVCAR-5 > 100 µM | SF-268 > 100 µM | DMS-273 > 100 µM | 786-0 > 100 µM | LOX IMVI > 100 µM | KM-20L2 > 100 µM

COC(=O)CC(NC(=O)OCc1ccccc1)C(C(=O)OCc1ccccc1)C(C)(OC)OC (configuration not stated)
inactive: RXF 393 16.8 µM | NCI-H460 31.7 µM | K562 10.6 µM | HT-29 34.6 µM | HCC 2998 38 µM | DMS-114 22.8 µM | SK-MEL-28 52.1 µM | SF-268 39.9 µM | DMS-273 33.3 µM | 786-0 33.3 µM | NCI-H23 17.4 µM | LOX IMVI 16.6 µM | KM-20L2 45.4 µM

O=C1C=C(Nc2ccc(Cl)cc2Cl)c2ccccc2C1=O
inactive: RXF 393 38.3 µM | NCI-H460 26.1 µM | K562 31.3 µM | HT-29 > 100 µM | HCC 2998 54.6 µM | DMS-114 23.6 µM | SK-MEL-28 59.8 µM | HOP-92 21.2 µM | OVCAR-5 > 100 µM | SF-268 > 100 µM | DMS-273 27.4 µM | 786-0 78.5 µM | NCI-H23 21.7 µM | KM-20L2 > 100 µM

CCOC1c2cc(C(C)C)c(O)c(O)c2[C@@]23CCCC(C)(C)C2C1OC3=O (some centres not stated)
inactive: RXF 393 30.3 µM | NCI-H460 > 100 µM | K562 > 100 µM | HT-29 > 100 µM | HCC 2998 > 100 µM | DMS-114 62.4 µM | SK-MEL-28 > 100 µM | OVCAR-5 > 100 µM | SF-268 > 100 µM | DMS-273 > 100 µM | 786-0 > 100 µM | NCI-H23 > 100 µM | LOX IMVI > 100 µM | KM-20L2 > 100 µM

COC(=O)C1CCc2nnc(-c3cccnc3)n21 (configuration not stated)
inactive: RXF 393 > 100 µM | NCI-H460 > 100 µM | K562 > 100 µM | HCC 2998 > 100 µM | DMS-114 > 100 µM | SK-MEL-28 > 100 µM | SF-268 > 100 µM | DMS-273 > 100 µM | 786-0 > 100 µM | KM-20L2 > 100 µM

Brc1ccc(C[P+]2(c3ccccc3)CCCCC2)cc1.[O-][Cl+3]([O-])([O-])[O-]
inactive: RXF 393 > 100 µM | NCI-H460 > 100 µM | K562 77.4 µM | HT-29 38.8 µM | HCC 2998 36.9 µM | DMS-114 39.5 µM | SK-MEL-28 63.7 µM | OVCAR-5 > 100 µM | DMS-273 37.7 µM | 786-0 > 100 µM | NCI-H23 96.2 µM | LOX IMVI 63.2 µM | KM-20L2 61.2 µM

CC/C=C\C/C=C\C1CC(=O)NCCCNCCCCN1 (configuration not stated)
inactive: RXF 393 4.83 µM | NCI-H460 > 100 µM | HT-29 > 100 µM | HCC 2998 > 100 µM | DMS-114 > 100 µM | SK-MEL-28 > 100 µM | HOP-92 > 100 µM | OVCAR-5 > 100 µM | SF-268 > 100 µM | DMS-273 > 100 µM | 786-0 > 100 µM | NCI-H23 > 100 µM | LOX IMVI > 100 µM | KM-20L2 > 100 µM

CCOC(=O)/N=c1/nc(N(C)C)ss1
inactive: RXF 393 > 100 µM | NCI-H460 > 100 µM | K562 > 100 µM | HT-29 > 100 µM | HCC 2998 > 100 µM | DMS-114 > 100 µM | SK-MEL-28 > 100 µM | HOP-92 > 100 µM | OVCAR-5 > 100 µM | SF-268 > 100 µM | DMS-273 > 100 µM | 786-0 > 100 µM | NCI-H23 > 100 µM | KM-20L2 > 100 µM

Cc1c(Cl)ccc2c1NC(=O)C2(O)C(C(=O)c1ccccc1)c1ccccc1 (configuration not stated)
inactive: RXF 393 27.5 µM | NCI-H460 64.9 µM | K562 31.1 µM | HT-29 29.9 µM | HCC 2998 97.9 µM | DMS-114 21.9 µM | SK-MEL-28 94.6 µM | OVCAR-5 32.7 µM | SF-268 62.7 µM | DMS-273 51.5 µM | 786-0 32.4 µM | NCI-H23 4.98 µM | LOX IMVI 44.2 µM | KM-20L2 46 µM

CCCCCCCCCCCCCC(=O)OCC(C[As](=O)(O)O)OC(=O)CCCCCCCCCCCCC (configuration not stated)
inactive: RXF 393 35.3 µM | NCI-H460 > 100 µM | K562 > 100 µM | HT-29 > 100 µM | HCC 2998 > 100 µM | DMS-114 74 µM | SK-MEL-28 > 100 µM | HOP-92 86.5 µM | SF-268 > 100 µM | DMS-273 > 100 µM | 786-0 > 100 µM | NCI-H23 > 100 µM | KM-20L2 > 100 µM

COc1ccc(N2C(=O)C3c4[nH]c5ccccc5c4C4CC(C)(C)CC(C)(C)C4C3C2=O)cc1 (configuration not stated)
inactive: RXF 393 12.8 µM | K562 44.5 µM | HT-29 26 µM | HCC 2998 33.6 µM | DMS-114 27.2 µM | SK-MEL-28 14.1 µM | HOP-92 11.9 µM | SF-268 16.4 µM | DMS-273 11 µM | 786-0 12.9 µM | NCI-H23 13.8 µM | KM-20L2 29.3 µM
